Values quoted from earlier work as cited in patent publication US11208393B2, “Methods for extraction, processing, and purification of a selected family of target compounds from cannabis” (Nectar Health Sciences Inc., priority 2019, dated 2021).

Details: of the protonated amine (ammonium ion)

| SMILES | pKa |
| --- | --- |
| CN(C)CCO [(CH3)2NHCH2OH^+, dimethylethanolamine] | 9.3 |
| C1CN2CCN1CC2 [DABCO, 1,4-diazabicyclo[2.2.2]octane] | 8.9 |
| CN(C)CCN(C)C [TMEDA, tetramethylethylenediamine] | 9.0 |
